A short description of series [1]: Liver Microsome Stability Assay, human. It is filed as in vitro ADME. The conditions noted are these: human liver microsomes. Here is the method: Two separate experiments were performed as follows.
With Cofactors (NADPH): 25 μL of 10 mM NADPH was added to the incubations. The final concentrations of microsomes and NADPH were 0.5 mg/mL and 1 mM, respectively. The final concentration of microsomes was 0.5 mg/mL. The mixture was pre-warmed at 37° C. for 10 minutes. The reaction was started with the addition of 2.5 μL of 100 μM control compound or test compound solutions. Verapamil was used as positive control in this study. The final concentration of test compound or control compound was 1 μM. The incubation solution was incubated in water batch at 37° C. Aliquots of 25 μL were taken from the reaction solution at 0.5, 5, 15, 30 and 60 minutes. The reaction was stopped by the addition of 5 volumes of cold acetonitrile with IS (200 nM caffeine and 100 nM tolbutamide). Samples were centrifuged at 3, 220 g for 40 minutes. Aliquot of 100 μL of the supernatant was mixed with 100 μL of ultra-pure H2O and then used for LC-MS/MS analysis.
Data Analysis: All calculations were carried out using Microsoft Excel. Peak areas were determined from extracted ion chromatograms. The slope value, k, was determined by linear regression of the natural logarithm of the remaining percentage of the parent drug vs. incubation time curve.
The in vitro half-life (in vitro t1/2) was determined from the slope value:
Conversion of the in vitro t1/2 (min) into the in vitro intrinsic clearance (in vitro CLint, in μL/min/mg protein) was done using the following equation (mean of duplicate determinations): […]
The calculations of Scaled-up CLint(mL/min/kg), Predicted CLH (mL/min/kg) and EH were done using the following equation:
Scaled-up CLint=(0.693/t1/2)×(1/(microsomal protein concentration(0.5 mg/mL)))×Scaling Factors;Predicted CLH=(QH×Scaled-up CLint×fub)/(QH+Scaled-up CLint×fub);EH=Predicted CLH/QH
where QH is the hepatic blood flow (mL/min/kg) (Table 32), • fub is the fraction of unbound drug in plasma which is assumed to be 1.
“+++” indicates a Clint value less than 10 mL/min/Kg, […] indicates a Clint between 10 and 20 mL/min/Kg, and “+” indicates a Clint above 20 mL/min/Kg.
In general terms: Microsomes from liver hold many membrane-bound enzymes, among them those of drug oxidation.

The nature of series [2]: In vivo PK study in male CD1 mice. Particulars: mice; for AUC(0-t): read-out: AUCLast Mean; for half-life: read-out: T1/2 Mean (converted); for bioavailability: read-out: Bioavailability. Here is the method:
(§1) The studies were conducted in male Sprague Dawley rats, three rats per group, or male CD1 mice, three mice per group. Compounds were dosed 1.0 mg/Kg i.v. (vehicle ethanol: % PEG400 in deionized water, in proportions suitable for dosing a clear solution) and 3.0 mg/kg or 10 mg/kg p.o. (vehicle: 1% methyl cellulose: 1,500 cP in DI water (w/v)). A11 animals had free access to food and water. Rat i.v. PK time points: Plasma: 0.083, 0.25, 0.5, 1, 2, 4, 8 and 24 h; Rat p.o. PK time points: Plasma: 0.25, 0.5, 1, 2, 4, 8 and 24 h. Mouse i.v. PK time points: Plasma: 0.083, 0.25, 0.5, 1, 2, 4, 8, 24, and 48 h; Mouse p.o. PK time points: Plasma: 0.25, 0.5, 1, 2, 4, 8, 24, and 48 h. Concentrations of compound in the plasma samples were analyzed using a LC-MS/MS method. WinNonlin (Phoenix™, version 6.1) or other similar software was used for pharmacokinetic calculations.

A short description of series [3]: In vivo PK study in male Sprague Dawley rats. Particulars: rats; for C0 / AUC(0-inf) / AUC(0-t) / half-life / Cmax / Tmax / bioavailability: male, Sprague Dawley, rat, plasma; for AUC(0-inf): read-out: AUCInf Mean; for AUC(0-t): read-out: AUCLast Mean; for half-life: read-out: T1/2 Mean (converted); for bioavailability: read-out: Bioavailability. Here is the method: as §1

Setting [4] is: male, CD1, mouse, plasma, 1 mg/kg IV.
The mark [5] stands for this setting: male, CD1, mouse, plasma, 10 mg/kg PO.

In the case of `C[C@@H](CO)n1cnc2c(-c3cccnc3)nc(-c3ccc(C(F)(F)F)nc3)cc2c1=O` [Compound 12], in series [1], the “Human liver microsome clearance” value is listed as “+++ (“+++” indicates a Clint value less than 10 mL/min/Kg)”.
Still for that read-out and setting: next, `CC(C)(O)Cn1cnc2c(-c3cccnc3)nc(-c3ccc(C(F)(F)F)cc3)cc2c1=O` [Compound 16]: “+++ (“+++” indicates a Clint value less than 10 mL/min/Kg)”.
By Cmax is commonly meant the peak of the concentration-time curve. Broadly, the Tmax is the time at which the peak concentration occurs. By bioavailability is commonly meant dose-corrected exposure relative to a reference, in per cent. Take `Cc1ccc(-c2cc3c(=O)n([C@@H](C)CO)cnc3c(-c3cccnc3)n2)cc1` [Compound 17, (S)-3-(1-hydroxypropan-2-yl)-8-(pyridin-3-yl)-6-(p-tolyl)pyrido[3,4-d]pyrimidin-4(3H)-one]: the “Human liver microsome clearance” value in series [1] was “+ (“+” indicates a Clint above 20 mL/min/Kg)”. In addition, in series [2] (setting [4]), the C0 was 601 ng/mL, the AUC(0-t) was found to be 231 ng·h/mL and the half-life is 0.504 h. For the same compound, in series [2] (setting [5]), the Cmax stood at 349 ng/mL, the time of peak concentration (Tmax) was 0.417 h, the AUC(0-t) was 497 ng·h/mL and the bioavailability stood at 21.6%. Also, in series [2] (setting [5]), the half-life was 1.15 h. Also, the AUC(0-inf) in series [2] (male, CD1, mouse, plasma, 10 mg/kg PO, read-out: AUCInf Mean) came out at 519 ng·h/mL. In series [2] (1 mg/kg IV), the “CI Mean” value was 1200 mL/min/kg.
As to `CC(C)(O)Cn1cnc2c(-c3cccnc3)nc(-c3ccc(Cl)cc3)cc2c1=O` [Compound 18], the “Human liver microsome clearance” value in series [1] is “+++ (“+++” indicates a Clint value less than 10 mL/min/Kg)”. In series [2] (setting [4]), the C0 amounted to 333 ng/mL, the AUC(0-t) was 6770 ng·h/mL and the half-life is 20.7 h. In series [2] (setting [5]), the highest level (Cmax) was 1310 ng/mL, the time to peak (Tmax) was found to be 6.67 h, the AUC(0-t) came to 45800 ng·h/mL and the bioavailability is 67.6%. Also, the half-life in series [2] (setting [5]) is 23.4 h. Moreover, the “CI Mean” value in series [2] (1 mg/kg IV) came to 33.7 mL/min/kg.
On to `Cn1cc(-c2nc(-c3ccc(Cl)cc3)cc3c(=O)n(CC(C)(C)O)cnc23)cn1` [Compound 21], for which the “Human liver microsome clearance” value in series [1] was “+++ (“+++” indicates a Clint value less than 10 mL/min/Kg)”.
On the same count and under the same terms, to `C[C@@H](CO)n1cnc2c(-c3cccnc3)nc(-c3ccc(OC(F)(F)F)cc3)cc2c1=O` [Compound 22] belongs “+++ (“+++” indicates a Clint value less than 10 mL/min/Kg)”.
For the compound `C[C@@H](CO)n1cnc2c(-c3cccnc3)nc(-c3ccc(C(F)(F)F)cc3)cc2c1=O` [Compound 23], the “Human liver microsome clearance” value in series [1] was “+++ (“+++” indicates a Clint value less than 10 mL/min/Kg)”.
For the compound `C[C@@H](CO)n1cnc2c(-c3cnn(C)c3)nc(-c3ccc(OC(F)(F)F)cc3)cc2c1=O` [Compound 25], the “Human liver microsome clearance” value in series [1] is on record as “+++ (“+++” indicates a Clint value less than 10 mL/min/Kg)”.
Still for that read-out and setting: next, `C[C@@H](CO)n1cnc2c(-c3cnn(C)c3)nc(-c3ccc(Cl)cc3)cc2c1=O` [Compound 27]: “+++ (“+++” indicates a Clint value less than 10 mL/min/Kg)”; `C[C@H](n1cnc2c(-c3cccnc3)nc(-c3cccnc3)cc2c1=O)C(C)(C)O` [Compound 34]: “+++ (“+++” indicates a Clint value less than 10 mL/min/Kg)”.
As for `Cn1cc(-c2nc(-c3ccc(C(F)(F)F)nc3)cc3c(=O)n(CC(C)(C)O)cnc23)cn1` [Compound 60], in series [2] (setting [4]), the C0 was found to be 350 ng/mL, the AUC(0-t) amounted to 6520 ng·h/mL and the half-life is 11.8 h. Also, in series [2] (setting [5]), the highest level (Cmax) was 1120 ng/mL, the Tmax came to 8 h, the AUC(0-t) was determined as 29800 ng·h/mL and the bioavailability was 45.7%. For the same compound, the “CI Mean” value in series [2] (1 mg/kg IV) was 40.3 mL/min/kg. Besides, in series [3] (1 mg/kg IV), the C0 came out at 425 ng/mL, the AUC(0-inf) amounted to 3050 ng·h/mL, the AUC(0-t) came to 2910 ng·h/mL and the half-life is 5.61 h. For the same compound, the “CI Mean” value in series [3] (1 mg/kg IV) was 91.3 mL/min/kg. Further, in series [3] (PO, dosage of 3 mg/kg), the Cmax was found to be 152 ng/mL, the Tmax was found to be 5.33 h, the AUC(0-t) is 2430 ng·h/mL and the bioavailability came to 27.9%.
As for `O=c1c2cc(-c3ccc(C(F)(F)F)nc3)nc(-c3cccnc3)c2ncn1[C@@H]1COC[C@H]1O` [Compound 79], in series [3] (1 mg/kg IV), the C0 came out at 663 ng/mL, the AUC(0-inf) is 1220 ng·h/mL, the AUC(0-t) was determined as 1200 ng·h/mL and the half-life was 1.38 h. In addition, in series [3] (1 mg/kg IV), the “CI Mean” value was found to be 228 mL/min/kg. In series [3] (PO, dosage of 3 mg/kg), the Cmax was 508 ng/mL, the time to peak (Tmax) came to 1 h, the AUC(0-inf) stood at 2420 ng·h/mL and the AUC(0-t) worked out at 2270 ng·h/mL. Also, in series [3] (PO, dosage of 3 mg/kg), the bioavailability worked out at 65.9% and the half-life is 2.53 h.
`Cn1cc(-c2nc(-c3ccc(C(F)(F)F)cn3)cc3c(=O)n(CC(C)(C)O)cnc23)cn1` [Compound 103, 3-(2-hydroxy-2-methylpropyl)-8-(1-methyl-1H-pyrazol-4-yl)-6-(5-(trifluoromethyl)pyridin-2-yl)pyrido[3,4-d]pyrimidin-4(3H)-one]: in series [2] (setting [4]), the C0 was 349 ng/mL, the AUC(0-t) is 10400 ng·h/mL and the half-life is 69.5 h. In series [2] (setting [5]), the highest level (Cmax) was 152 ng/mL, the time of peak concentration (Tmax) came out at 13.3 h, the AUC(0-t) is 6060 ng·h/mL and the bioavailability turned out to be 5.82%. In addition, the “CI Mean” value in series [2] (1 mg/kg IV) was found to be 10.7 mL/min/kg. In series [3] (1 mg/kg IV), the C0 was determined as 199 ng/mL, the AUC(0-inf) is 12300 ng·h/mL, the AUC(0-t) was found to be 2790 ng·h/mL and the half-life is 63 h. Further, in series [3] (1 mg/kg IV), the “CI Mean” value amounted to 26 mL/min/kg. For the same compound, in series [3] (PO, dosage of 3 mg/kg), the peak level (Cmax) was 40.2 ng/mL, the Tmax turned out to be 8 h, the AUC(0-t) stood at 794 ng·h/mL and the bioavailability was 9.49%.
For the compound `CC(C)(O)Cn1cnc2c(-c3cccnc3)nc(-c3ccc(C(F)(F)F)cn3)cc2c1=O` [Compound 105], in series [2] (setting [4]), the C0 amounted to 412 ng/mL, the AUC(0-t) amounted to 11300 ng·h/mL and the half-life was 55.9 h. For the same compound, in series [2] (setting [5]), the Cmax came out at 2350 ng/mL, the Tmax was determined as 12 h, the AUC(0-t) amounted to 96100 ng·h/mL and the bioavailability worked out at 85%. Moreover, the half-life in series [2] (setting [5]) is 48.5 h. Also, the “CI Mean” value in series [2] (1 mg/kg IV) is 11.4 mL/min/kg. Moreover, in series [3] (1 mg/kg IV), the C0 is 411 ng/mL, the AUC(0-inf) was determined as 9520 ng·h/mL, the AUC(0-t) was 4410 ng·h/mL and the half-life was 27.1 h. In addition, the “CI Mean” value in series [3] (1 mg/kg IV) stood at 29.5 mL/min/kg. Moreover, in series [3] (PO, dosage of 3 mg/kg), the Cmax is 592 ng/mL, the Tmax was 6.67 h, the AUC(0-t) is 11900 ng·h/mL and the bioavailability worked out at 90.2%.

Source of the values: US20230295152A1 (SENDA BIOSCIENCES, INC., priority 2019, published 2023).
